Values quoted from earlier work in US20040147490A1, “2-Amino-propanol derivatives” (priority 2001, published 2004).

Settings: comparison substance

CCCCCCCCCCCCC/C=C/[C@@H](O)[C@@H](N)COP(=O)(O)O [sphingosine-1 phosphate]
negative chronotropic effects: negative chronotropic effects
